Data from publication PMC7144022, “Quinolinecarboxamides Inhibit the Replication of the Bovine Viral Diarrhea Virus by Targeting a Hot Spot for the Inhibition of Pestivirus Replication in the RNA-Dependent RNA Polymerase” (Molecules, 2020).

Key:
[1] = Cytotoxicity assay, proliferation of exponentially growing MDBK cells (MTS/PMS); assay type: cell-based, bovine; details: bovine
Description: Assays were carried out, as described previously.

BVDV NADL virus = test: CPE-based antiviral assay, BVDV NADL in MDBK cells (MTS/PMS); details: for EC50: Bovine viral diarrhea virus isolates and strains, MDBK, 72 h; for S.I.: selectivity index, CC50 vs EC50
[2] = sheet CSFCII#, potency relative to TO502-2403 (EC50 0.2 µM)
[3] = sheet CSFCI#, potency relative to TO505-6180 (EC50 0.07 µM)

Structure (SMILES)	CC50 at 5 days [1]	EC50 (BVDV NADL virus)	S.I. (BVDV NADL virus)	fold increase (BVDV NADL virus; [2])	fold increase (BVDV NADL virus; [3])
O=C(Nc1nc(-c2ccccc2)cs1)c1cc(-c2ccccc2)nc2ccccc12 [CSFC-60, O=C(Nc1nc(cs1)c2ccccc2)c4cc(nc3ccccc34)c5ccccc5]	> 100 µM	0.7 µM	143	0.29	–
O=C(Nc1ccn(-c2cccc(Cl)c2)n1)c1cc(-c2ccccc2)nc2ccccc12 [CSFC-132, Clc1cccc(c1)n2ccc(n2)NC(=O)c4cc(nc3ccccc34)c5ccccc5]	> 100 µM	0.02 µM	–	10.00	–
Cc1ccc2nc(NC(=O)c3ccncc3)sc2c1 [CSFC-22, Cc1ccc2nc(NC(=O)c3ccncc3)sc2c1]	> 100 µM	> 100 µM	1	–	0.0007
O=C(Nc1nc2cc(Cl)ccc2o1)c1cc(-c2ccccc2)nc2ccccc12 [CSFC-5, Clc1cc2nc(NC(=O)c3cc(nc4ccccc43)c3ccccc3)oc2cc1]	> 100 µM	> 100 µM	1	–	0.0007
O=C(Nc1nnc(-c2ccccc2)s1)c1cc(-c2cccs2)nc2ccc(F)cc12 [CSFC-106, O=C(Nc1nnc(s1)c2ccccc2)c4cc(nc3ccc(F)cc34)c5cccs5]	> 100 µM	2.3 µM	43	0.09	–
Cc1c(-c2ccco2)nc2ccccc2c1C(=O)Nc1nc2c(C)cccc2s1 [CSFC-105, Cc2c(nc1ccccc1c2C(=O)Nc3nc4c(C)cccc4s3)c5ccco5]	> 100 µM	0.7 µM	143	0.29	–
Cc1csc(-c2cc(C(=O)Nc3ccn(-c4ccccc4)n3)c3ccccc3n2)c1 [CSFC-52, Cc1cc(sc1)c3nc2ccccc2c(c3)C(=O)Nc4ccn(n4)c5ccccc5]	> 100 µM	1.2 µM	83	0.17	–
Cc1cc(NC(=O)c2cc(-c3ccco3)nc3ccccc23)on1 [CSFC-42, O=C(Nc1cc(C)no1)c3cc(nc2ccccc23)c4ccco4]	> 100 µM	17.5 µM	6	0.0114	–
O=C(Nc1ccn(-c2ccccc2)n1)c1cc(-c2cccs2)nc2ccc(Br)cc12 [CSFC-122, O=C(Nc1ccn(n1)c2ccccc2)c4cc(nc3ccc(Br)cc34)c5cccs5]	> 100 µM	0.6 µM	167	0.33	–
COc1ccc(-c2cc(C(=O)Nc3ccn(-c4ccccc4)n3)c3ccccc3n2)cc1 [CSFC-118, COc1ccc(cc1)c3nc2ccccc2c(c3)C(=O)Nc4ccn(n4)c5ccccc5]	> 100 µM	0.3 µM	333	0.67	–
Cc1ccc(-c2csc(NC(=O)c3cc(-c4ccccc4)nc4ccccc34)n2)cc1 [CSFC-114, O=C(Nc1nc(cs1)c2ccc(C)cc2)c4cc(nc3ccccc34)c5ccccc5]	> 100 µM	1.1 µM	91	0.18	–
Cc1ccc(-c2cc(C(=O)Nc3ccn(-c4ccccc4)n3)c3ccccc3n2)o1 [CSFC-51, Cc1ccc(o1)c3nc2ccccc2c(c3)C(=O)Nc4ccn(n4)c5ccccc5]	> 100 µM	15.2 µM	7	0.0132	–
O=C(Nc1ccn(-c2ccc(Cl)cc2)n1)c1cc(-c2ccco2)nc2c(F)cccc12 [CSFC-104, Clc1ccc(cc1)n2ccc(n2)NC(=O)c4cc(nc3c(F)cccc34)c5ccco5]	> 100 µM	0.2 µM	500	1.00	–
O=C(Nc1nc2cc(Cl)ccc2s1)c1cc(-c2ccco2)nc2ccccc12 [CSFC-55, Clc1cc2nc(sc2cc1)NC(=O)c4cc(nc3ccccc34)c5ccco5]	> 100 µM	100 µM	1	0.002	–
Cc1ccc2nc(NC(=O)c3cccc4ccccc34)sc2c1 [CSFC-24, Cc1ccc2nc(NC(=O)c3cccc4ccccc43)sc2c1]	> 100 µM	> 100 µM	1	–	0.0007
O=C(Nc1ccn(-c2ccccc2Cl)n1)c1cc(-c2ccccc2)nc2ccccc12 [CSFC-131, Clc1ccccc1n2ccc(n2)NC(=O)c4cc(nc3ccccc34)c5ccccc5]	> 100 µM	0.1 µM	1000	2.00	–
Cc1cc2nc(NC(=O)c3cc(-c4ccco4)nc4ccccc34)sc2cc1C [CSFC-39, Cc1cc2nc(NC(=O)c3cc(nc4ccccc43)c3ccco3)sc2cc1C]	> 100 µM	0.6 µM	167	–	0.12
Cc1ccc(-c2cc(C(=O)Nc3nc4c(C)cccc4s3)c3ccccc3n2)o1 [CSFC-49, Cc1ccc(o1)c3nc2ccccc2c(c3)C(=O)Nc4nc5c(C)cccc5s4]	> 100 µM	0.7 µM	143	0.29	–

Structure (SMILES)	CC50 at 5 days [1]	EC50 (BVDV NADL virus)	S.I. (BVDV NADL virus)	fold increase (BVDV NADL virus; [2])	fold increase (BVDV NADL virus; [3])
COc1ccc2nc(NC(=O)c3cc(-c4ccco4)nc4c(F)cccc34)sc2c1 [CSFC-83, Fc5cccc1c5nc(cc1C(=O)Nc2nc3ccc(cc3s2)OC)c4ccco4]	> 100 µM	0.07 µM	1429	2.86	–
O=C(Nc1cccnc1)c1cc(-c2ccccc2)nc2ccccc12 [CSFC-7, O=C(Nc1cccnc1)c1cc(nc2ccccc21)c1ccccc1]	> 100 µM	> 100 µM	1	–	0.0007
O=C(Nc1ccn(-c2ccccc2)n1)c1cc(-c2ccc(F)cc2)nc2ccc(F)cc12 [CSFC-123, Fc1ccc(cc1)c3nc2ccc(F)cc2c(c3)C(=O)Nc4ccn(n4)c5ccccc5]	> 100 µM	0.3 µM	333	0.67	–
Cc1ccc(-c2cc(C(=O)Nc3nc4c(C)cccc4s3)c3ccccc3n2)cc1 [CSFC-120, Cc1ccc(cc1)c3nc2ccccc2c(c3)C(=O)Nc4nc5c(C)cccc5s4]	> 100 µM	0.2 µM	500	1.00	–
COc1ccc(-c2cc(C(=O)Nc3ccn(-c4ccccc4)n3)c3ccccc3n2)cc1F [CSFC-107, COc1ccc(cc1F)c3nc2ccccc2c(c3)C(=O)Nc4ccn(n4)c5ccccc5]	> 100 µM	0.6 µM	167	0.33	–
Cc1ccc2nc(NC(=O)c3cc(O)nc4ccccc34)sc2c1 [CSFC-31, Oc1nc2ccccc2c(c1)C(=O)Nc1nc2ccc(C)cc2s1]	> 100 µM	> 100 µM	1	–	0.0007
O=C(Nc1ccn(-c2ccccc2)n1)c1cc(-c2cccs2)nc2c(Cl)cccc12 [CSFC-109, O=C(Nc1ccn(n1)c2ccccc2)c4cc(nc3c(Cl)cccc34)c5cccs5]	13 µM	0.2 µM	65	1.00	–
Cc1ccc2nc(NC(=O)c3cc[n+]([O-])cc3)sc2c1 [CSFC-27, [O-][n+]1ccc(cc1)C(=O)Nc1nc2ccc(C)cc2s1]	> 100 µM	> 100 µM	1	–	0.0007
O=C(Nc1ccn(-c2ccccc2)n1)c1cc(-c2cccs2)nc2ccc(I)cc12 [CSFC-97, O=C(Nc1ccn(n1)c2ccccc2)c4cc(nc3ccc(I)cc34)c5cccs5]	> 100 µM	4.1 µM	24	0.05	–
Cc1sc(NC(=O)c2cc(-c3ccccc3)nc3ccccc23)nc1-c1ccccc1 [CSFC-110, O=C(Nc2nc(c1ccccc1)c(C)s2)c4cc(nc3ccccc34)c5ccccc5]	> 100 µM	0.3 µM	333	0.67	–
O=C(Nc1ccn(-c2ccccc2)n1)c1cc(-c2ccc3ccccc3c2)nc2ccccc12 [CSFC-146, O=C(c2cc(nc1ccccc12)c3cc4ccccc4cc3)Nc5ccn(n5)c6ccccc6]	> 100 µM	0.03 µM	3333	6.67	–
COc1ccc(NC(=O)c2cc(-c3ccccc3)nc3ccccc23)cc1 [CSFC-139, COc1ccc(cc1)NC(=O)c1cc(nc2ccccc12)c1ccccc1]	> 100 µM	> 100 µM	1	–	0.0007
O=C(Nc1ccn(-c2ccccc2)n1)c1cc(-c2cccnc2)nc2ccccc12 [CSFC-99, O=C(Nc1ccn(n1)c1ccccc1)c1cc(nc2ccccc21)c1cccnc1]	72 µM	53.6 µM	1	0.00373	–
Cc1ccc2sc(NC(=O)c3cc(-c4ccccc4)nc4ccccc34)nc2c1C [CSFC-145, Cc1c(C)ccc2sc(nc12)NC(=O)c1cc(nc2ccccc21)c1ccccc1]	> 100 µM	< 0.02 µM	–	–	–
O=C(Nc1ccn(-c2ccccc2)n1)c1cc(-c2cccs2)nc2ccc(F)cc12 [CSFC-93, O=C(Nc1ccn(n1)c2ccccc2)c4cc(nc3ccc(F)cc34)c5cccs5]	> 100 µM	0.06 µM	1667	3.33	–
O=C(Nc1nc2c(F)cccc2s1)c1cc(-c2ccccc2)nc2ccccc12 [CSFC-150, Fc1cccc2sc(nc12)NC(=O)c1cc(nc2ccccc21)c1ccccc1]	8 ± 1 µM	0.1 µM	80	–	0.70
Cc1cccc2sc(NC(=O)c3cc(-c4ccccc4Cl)nc4ccccc34)nc12 [CSFC-113, Clc1ccccc1c3nc2ccccc2c(c3)C(=O)Nc4nc5c(C)cccc5s4]	> 100 µM	0.4 µM	250	0.50	–
O=C(Nc1ccn(-c2cc(F)cc(F)c2)n1)c1cc(-c2ccccc2)nc2ccccc12 [CSFC-144, Fc1cc(F)cc(c1)n2ccc(n2)NC(=O)c4cc(nc3ccccc34)c5ccccc5]	> 100 µM	0.02 µM	–	10.00	–
